Measurements: the supplement of paper PMC8967900

Legend:
Experiment in all cases: selective drug sensitivity score (sDSS, relative to normal bone marrow) (sDSS (score)); higher = more potent and effective on the cell line relative to normal bone marrow cells
Conditions in all cases: 72 h
COG-LL-394h = test system: COG-LL-394h
380 = test system: 380
MHH-CALL-2 = test system: MHH-CALL-2
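Further: ALL cell lines in 384-well plates, five doses spanning 10,000-fold, each plate scaled between vehicle and 100 µmol/L benzalkonium chloride controls, sDSS an adapted area-under-curve metric.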

Row | SMILES | selective drug sensitivity score (COG-LL-394h) | selective drug sensitivity score 380 | selective drug sensitivity score (MHH-CALL-2)
1 | CN1CCN(C2CCC(n3cc(-c4ccc(Oc5ccccc5)cc4)c4c(N)ncnc43)CC2)CC1 (stereo not given) (top concentration 10000 nM) | 4.42 | -0.68 | 3.12
2 | COc1cccc2c1C(=O)c1c(O)c3c(c(O)c1C2=O)C[C@@](O)(C(=O)CO)C[C@@H]3O[C@H]1C[C@H](N)[C@@H](O)[C@H](C)O1 [Epirubicin] (top concentration 1000 nM) | 6.82 | 13.8 | 6.12
3 | CON(C)C(=O)N1N=C(c2cc(F)ccc2F)S[C@@]1(CCCN)c1ccccc1 [Filanesib] (top concentration 1000 nM) | 8.7 | 18.5 | 16.4
4 | CN(Cc1cnc2nc(N)nc(N)c2n1)c1ccc(C(=O)N[C@@H](CCC(=O)O)C(=O)O)cc1 [Methotrexate] (top concentration 5000 nM) | 1.68 | 17.8 | 13.8
5 | Cc1sc2c(c1C)C(c1ccc(Cl)cc1)=N[C@@H](CC(=O)NCCCCNC(=O)COc1cccc3c1C(=O)N(C1CCC(=O)NC1=O)C3=O)c1nnc(C)n1-2 (stereo not given in full) [dBET1] (top concentration 10000 nM) | -2.78 | -4.58 | 4.92
6 | CC[C@H](CC#N)OC(=O)N[C@@H](C)c1cccc(NC(=O)Nc2ccc(-c3cnco3)c(OC)c2)c1 [AVN944] (top concentration 10000 nM) | -2.06 | 18.4 | 9.54
7 | CO[C@H]1C[C@@H]2CC[C@@H](C)[C@@](O)(O2)C(=O)C(=O)N2CCCC[C@H]2C(=O)O[C@H]([C@H](C)C[C@@H]2CC[C@@H](OCCO)[C@H](OC)C2)CC(=O)[C@H](C)/C=C(\C)[C@@H](O)[C@@H](OC)C(=O)[C@H](C)C[C@H](C)/C=C/C=C/C=C/1C [Everolimus] (top concentration 100 nM) | -4.9 | 16.5 | 4.2
8 | CC[C@@]1(O)C(=O)OCc2c1cc1n(c2=O)Cc2cc3c(CN(C)C)c(O)ccc3nc2-1 [Topotecan] (top concentration 10000 nM) | 11.4 | 27.1 | 26.6
9 | O=c1[nH]c(=O)n([C@H]2C[C@H](O)[C@@H](CO)O2)cc1C(F)(F)F [Trifluridine] (top concentration 10000 nM) | 2.66 | 14 | 9.96
10 | COc1ccc(-c2ccc3c(N4CCOC[C@@H]4C)nc(N4CCOC[C@@H]4C)nc3n2)cc1CO [AZD8055] (top concentration 10000 nM) | -2.42 | 15.8 | 6.08
